Results: patent US20150175599A1, “FAAH Inhibitors” (Ironwood Pharmaceuticals, Inc., priority 2010, published 2015)

Target: T1, FAAH (Rattus norvegicus, UniProt P97612)
T1 construct: For the assay of FAAH activity in rat brain membrane (RBM) homogenates; tissue Charles River (animals); host or cells: rat whole brain, membrane fraction
T1 sequence (P97612 1-579): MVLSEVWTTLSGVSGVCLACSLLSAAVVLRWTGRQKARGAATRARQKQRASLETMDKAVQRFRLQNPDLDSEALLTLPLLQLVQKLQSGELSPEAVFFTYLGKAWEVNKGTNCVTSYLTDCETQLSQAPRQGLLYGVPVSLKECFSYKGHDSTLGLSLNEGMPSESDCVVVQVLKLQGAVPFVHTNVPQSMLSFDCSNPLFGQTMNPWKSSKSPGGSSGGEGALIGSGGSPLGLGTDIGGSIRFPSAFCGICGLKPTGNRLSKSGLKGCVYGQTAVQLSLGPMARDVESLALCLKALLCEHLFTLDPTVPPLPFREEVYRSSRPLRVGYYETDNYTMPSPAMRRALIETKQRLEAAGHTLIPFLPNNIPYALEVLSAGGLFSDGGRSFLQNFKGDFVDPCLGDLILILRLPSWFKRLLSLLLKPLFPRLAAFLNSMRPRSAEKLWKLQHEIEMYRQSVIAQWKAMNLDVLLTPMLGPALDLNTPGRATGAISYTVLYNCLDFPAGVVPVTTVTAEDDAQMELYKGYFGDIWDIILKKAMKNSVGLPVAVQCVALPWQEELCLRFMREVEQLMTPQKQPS
Assay: FAAH inhibition, rat brain membrane homogenate assay
Format: biochemical
Details: rat brain homogenate; average activity; read-out: Rat Brain Extract FAAH IC50
Procedure: Adult rats (Charles River CD strain, female, 200 g) were anaesthetized with isofluorane and rapidly decapitated. Each brain was quickly removed and chilled in tubes (3 brains per tube) on ice. About 25 mL of “homogenization buffer” (20 mM HEPES buffer, pH 7.0, with 1 mM MgCl2) was added to 15 to 20 g of brain. The brains were homogenized on ice for 1 minute using an Omni GLH homogenizer (Omni International, Marietta, Ga.). The homogenates were then transferred to three centrifuge tubes and centrifuged at 36,500 g for 20 minutes at 4° C. The supernatant was discarded and each pellet was re-suspended in 25 mL homogenization buffer. The re-suspended material was again centrifuged (36,500 g, 20 minutes at 4° C.). Pellets were combined by re-suspension in 10 mL of homogenization buffer and incubated in a 37° C. water bath for 15 minutes. The tubes were then placed on ice for 5 minutes followed by centrifugation at 36,500 g for 20 minutes at 4° C. The supernatant was discarded and the membrane pellets were then re-suspended in 40 mL of “re-suspension buffer” (50 mM Tris-HCl buffer, pH 7.4, containing 1 mM EDTA and 3 mM MgCl2). A Bradford Protein assay was performed to determine protein concentration. The protein was aliquotted into screw cap Cryo tubes each containing −400 μL, flash-frozen in liquid nitrogen and stored at −80° C. until used for the assay. A similar protocol was used to obtain brain membrane homogenates from mice
FAAH activity was assayed in the respective homogenates described herein (Rat brain, Mouse brain or Human brain) with certain of the exemplary compounds described above using a modification of the method of Omeir et al. (1995 Life Sci. 56:1999) and Fowler et al. (1997 J. Pharmacol. Exp. Ther. 283:729). For the assay of FAAH activity in rat brain membrane (RBM) homogenates, RBM homogenates (7 μg protein in 20 μL final volume of 10 mM Tris pH 6.5) were mixed with 180 μL of a mixture of the following: […] unlabelled anandamide (AEA), 0.03 Ci radio labeled anandamide [ethanolamine 1-^3H](40-60 Ci/mmol; product number ART-626, American Radiolabelled Chemicals, St. Louis, Mo.), 1 mg/mL Bovine Serum Albumin (fatty acid-free BSA, electrophoresis grade, Sigma, St. Louis, Mo.), 10 mM Tris-HCl (pH 6.5), and 1 mM EDTA in the presence and absence of test compounds (vehicle was DMSO at a final concentration of 1%) and incubated for 10 minutes at 37° C. Samples were placed on ice to terminate the reactions.
The ^3H-ethanolamine product and un-reacted ^3H-anandamide substrate were then separated by either: (1) using chloroform/methanol extraction or (2) passing the reaction mixture through a glass fiber filter containing activated charcoal. Samples were extracted with chloroform/methanol by adding 0.4 mL of chloroform/methanol (1:1 v/v), vigorously mixing the samples, and separating the aqueous and organic phases by centrifugation. Radioactivity (corresponding to FAAH-catalyzed breakdown of ^3H-anandamide) found in aliquots (0.2 mL) of the aqueous phase was determined by liquid scintillation counting with quench correction. IC50 values were determined as described by Jonsson et al. (2001 Br. J Pharmacol. 133:1263). Alternatively, reactions were purified using a modification of the solid-phase extraction method described by Wilson et al (2003 Anal. Biochem. 318: 270). This method was modified as follows: after reactions were incubated at 37° C. for 10 minutes and chilled on ice, the reaction mixtures were acidified by adding 10 μL of sodium phosphate solution[0.5M (pH 2.0)]. Next, 90 μL aliquots of the acidified reaction mixtures were applied to activated charcoal (that had been previously washed with methanol as described by Wilson et al. (supra)) containing 80 μL of water on top of a glass fiber filter, centrifuged, and the radioactivity in the eluate was counted as described previously by Wilson et al. (supra). […]

Row | Structure (SMILES) | IC50 [nM]
1 | COc1cc(NC(=O)C(=O)c2c(C)n(Cc3ccc(Cl)cn3)c3ncc(C)cc23)ccn1 [Compound 75, (1-((5-chloropyridin-2-yl)methyl)-2,5-dimethyl-1H-pyrrolo[2,3-b]pyridin-3-yl)-N-(2-methoxypyridin-4-yl)-2-oxoacetamide] | < 100
2 | COc1ccc2c(c1)c(C(=O)C(=O)Nc1ccnc(OC)n1)c(C)n2Cc1ccc(Cl)cc1 [Compound 46, 2-(1-(4-chlorobenzyl)-5-methoxy-2-methyl-1H-indol-3-yl)-N-(2-methoxypyrimidin-4-yl)-2-oxoacetamide] | < 100
3 | CNc1ccc2c(c1)c(C(=O)C(=O)Nc1ccnc(OC)c1)c(C)n2Cc1ccc(Cl)cc1 [Compound 9, 2-(1-(4-chlorobenzyl)-2-methyl-5-(methylamino)-1H-indol-3-yl)-N-(2-methoxypyridin-4-yl)-2-oxoacetamide] | < 100
4 | COc1ccc2c(c1)c(C(=O)C(=O)Nc1ccnc(OC)c1)c(C)n2Cc1ccncc1 [Compound 16, 2-(5-methoxy-2-methyl-1-(pyridin-4-ylmethyl)-1H-indol-3-yl)-N-(2-methoxypyridin-4-yl)-2-oxoacetamide] | 100 to 1000
5 | COc1cnc2c(c1)c(C(=O)C(=O)Nc1ccnc(OC)c1)c(C)n2Cc1ncc(Cl)cc1Cl [Compound 29, 2-(1-((3,5-dichloropyridin-2-yl)methyl)-5-methoxy-2-methyl-1H-pyrrolo[2,3-b]pyridin-3-yl)-N-(2-methoxypyridin-4-yl)-2-oxoacetamide] | < 100
6 | COc1cc(NC(=O)C(=O)c2c(C)n(Cc3ccc(Cl)cc3)c3cc(F)c(OC)cc23)ccn1 [Compound 72, 2-(1-(4-chlorobenzyl)-6-fluoro-5-methoxy-2-methyl-1H-indol-3-yl)-N-(2-methoxypyridin-4-yl)-2-oxoacetamide] | < 100
7 | COc1cc(NC(=O)C(=O)c2c(C)n(Cc3ncc(Cl)cc3F)c3cc(Cl)c(OC)cc23)ccn1 [Compound 97, 2-(6-chloro-1-((5-chloro-3-fluoropyridin-2-yl)methyl)-5-methoxy-2-methyl-1H-indol-3-yl)-N-(2-methoxypyridin-4-yl)-2-oxoacetamide] | < 100
8 | COc1ccc2c(C(=O)C(=O)Nc3ccnc(OC)c3)c(C)n(Cc3ccc(Cl)cc3)c2c1 [Compound 48, 2-(1-(4-chlorobenzyl)-6-methoxy-2-methyl-1H-indol-3-yl)-N-(2-methoxypyridin-4-yl)-2-oxoacetamide] | < 100
9 | COc1ccc(Cn2c(C)c(C(=O)C(=O)Nc3ccnc(OC)c3)c3cc(OC)c(C)cc32)nc1 [Compound 96, 2-(5-methoxy-1-((5-methoxypyridin-2-yl)methyl)-2,6-dimethyl-1H-indol-3-yl)-N-(2-methoxypyridin-4-yl)-2-oxoacetamide] | < 100
10 | COc1cnc2c(c1)c(C(=O)C(=O)Nc1ccnc(OC)c1)c(C)n2Cc1ccc(Cl)cc1Cl [Compound 42, 2-(1-(2,4-dichlorobenzyl)-5-methoxy-2-methyl-1H-pyrrolo[2,3-b]pyridin-3-yl)-N-(2-methoxypyridin-4-yl)-2-oxoacetamide] | < 100
11 | COc1cc(NC(=O)C(=O)c2c(C)n(Cc3ccc(Cl)cn3)c3ccc(N)cc23)ccn1 [Compound 65, 2-(5-amino-1-((5-chloropyridin-2-yl)methyl)-2-methyl-1H-indol-3-yl)-N-(2-methoxypyridin-4-yl)-2-oxoacetamide] | < 100
12 | COc1ccc2c(c1)c(C(=O)C(=O)Nc1cc(Cl)nc(OC)c1)c(C)n2Cc1ccc(Cl)cc1 [Compound 47, N-(2-chloro-6-methoxypyridin-4-yl)-2-(1-(4-chlorobenzyl)-5-methoxy-2-methyl-1H-indol-3-yl)-2-oxoacetamide] | < 100
13 | COc1cnc2c(c1)c(C(=O)C(=O)Nc1ccnc(OC)c1)c(C)n2Cc1ccc(Cl)cc1 [Compound 38, 2-(1-(4-chlorobenzyl)-5-methoxy-2-methyl-1H-pyrrolo[2,3-b]pyridin-3-yl)-N-(2-methoxypyridin-4-yl)-2-oxoacetamide] | < 100
14 | COc1ccc2c(c1)c(C(=O)C(=O)Nc1cc(OC)ncc1F)c(C)n2Cc1ccc(Cl)cc1 [Compound 54, 2-(1-(4-chlorobenzyl)-5-methoxy-2-methyl-1H-indol-3-yl)-N-(5-fluoro-2-methoxypyridin-4-yl)-2-oxoacetamide] | < 100
15 | COc1cnc2c(c1)c(C(=O)C(=O)Nc1ccnc(OC)c1)c(C)n2Cc1ccc(Cl)cn1 [Compound 41, 2-(1-((5-chloropyridin-2-yl)methyl)-5-methoxy-2-methyl-1H-pyrrolo[2,3-b]pyridin-3-yl)-N-(2-methoxypyridin-4-yl)-2-oxoacetamide] | < 100
16 | COc1cc(NC(=O)C(=O)c2c(C)n(Cc3ccc(Cl)cc3)c3ccc(O)cc23)ccn1 [Compound 2, 2-(1-(4-chlorobenzyl)-5-hydroxy-2-methyl-1H-indol-3-yl)-N-(2-methoxypyridin-4-yl)-2-oxoacetamide] | < 100
17 | COc1cc(NC(=O)C(=O)c2c(C)n(Cc3ccc(Cl)cc3)c3ccc(OC)c(OC)c23)ccn1 [Compound 56, 2-(1-(4-chlorobenzyl)-4,5-dimethoxy-2-methyl-1H-indol-3-yl)-N-(2-methoxypyridin-4-yl)-2-oxoacetamide] | 1000 to 10000
18 | COCc1ccc2c(c1)c(C(=O)C(=O)Nc1ccnc(OC)c1)c(C)n2Cc1ccc(Cl)cc1 [Compound 11, 2-(1-(4-chlorobenzyl)-5-(methoxymethyl)-2-methyl-1H-indol-3-yl)-N-(2-methoxypyridin-4-yl)-2-oxoacetamide] | < 100
19 | COc1cc(NC(=O)C(=O)c2c(C)n(Cc3ccc(Cl)cc3)c3ccc(C(=O)N(C)C)cc23)ccn1 [Compound 6, 1-(4-chlorobenzyl)-3-(2-(2-methoxypyridin-4-ylamino)-2-oxoacetyl)-N,N,2-trimethyl-1H-indole-5-carboxamide] | 100 to 1000
20 | COc1ccc2c(c1)c(C(=O)C(=O)Nc1ccnc(OC)c1Cl)c(C)n2Cc1ccc(Cl)cc1 [Compound 52, N-(3-chloro-2-methoxypyridin-4-yl)-2-(1-(4-chlorobenzyl)-5-methoxy-2-methyl-1H-indol-3-yl)-2-oxoacetamide] | > 10000
21 | COc1ccc2c(c1)c(C(=O)C(=O)Nc1ccnc(OC)c1)c(C)n2Cc1ccccn1 [Compound 77, 2-(5-methoxy-2-methyl-1-(pyridin-2-ylmethyl)-1H-indol-3-yl)-N-(2-methoxypyridin-4-yl)-2-oxoacetamide] | < 100
22 | COc1cc(NC(=O)C(=O)c2c(C)n(Cc3ccc(Cl)cn3)c3ccc([N+](=O)[O-])cc23)ccn1 [Compound 62, 2-(1-((5-chloropyridin-2-yl)methyl)-2-methyl-5-nitro-1H-indol-3-yl)-N-(2-methoxypyridin-4-yl)-2-oxoacetamide] | < 100
